According to article PMC12035797, “Peptidomimetics Activating the Proteasome: A New Perspective for Parkinson’s Treatment” (Journal of Medicinal Chemistry, 2025):
*1 amine or outer side, *2 acyl side, *3 side chain or, on linkers, in order; H or OH if unused. Where a SMILES comes first, the peptide text is derived from it. [ ]: non-standard residue; d: D form. X2 = N=C(N)NCCC[C@@H](C(=O)[*:2])N(c1ccc([N+](=O)[O-])c2nonc12)[*:1]; Nlys = NCCCCNCC(=O)O

System: HEK293T cells
Test: Fluorescence microscopy of cell penetration of NBD-labeled activators
Format: cell-based, human
Settings: 10 μM, 3 h
Experimental: In order to verify the permeability of the constructs across cell membranes, we synthesized their analogues with an NBD fluorophore attached at the N-terminus. The excitation wavelength for this fluorophore is 467 nm, and the emission wavelength is 539 nm.
HEK293T cells were incubated in DMEM supplemented with 10% FBS and penicillin/streptomycin (100 units/mL/100 μg/mL), at 37 °C with 5% CO2. Cells were seeded on 24-well plates at a density of 3 × 10^4 cells per well and incubated in 0.5 mL of the complete medium for 48 h. Then, the fresh medium containing the modulators labeled with NBD fluorophore was added to each well at a concentration of 10 μM. Half an hour before the end of the incubation, 20 μL of Hoechst 33342 dye was added to each well, and then the plate was placed back in the incubator. After the 3 h incubation, cells were washed thoroughly with PBS, and a phenol red-free culture medium (FluoroBriteTM DMEM, Gibco/Thermo Fisher Scientific, Waltham, MA, USA) was added. Subsequently, the cells were examined using a Zeiss AXIO Observer D1 microscope (Carl Zeiss AG, Oberkochen, Germany) using an Alexa Fluor 488 filter.

C[C@@H](O)[C@H](NC(=O)[C@H](Cc1ccccc1)NC(=O)[C@H](Cc1ccc(O)cc1)NC(=O)CN(CCCCN)C(=O)[C@H](CCCNC(=N)N)NC(=O)[C@H](CCCNC(=N)N)NC(=O)[C@H](CCCNC(=N)N)NC(=O)[C@H](CCC(N)=O)NC(=O)[C@H](CCCNC(=N)N)NC(=O)[C@H](CCCNC(=N)N)NC(=O)[C@H](CCCCN)NC(=O)[C@H](CCCCN)NC(=O)[C@H](CCCNC(=N)N)Nc1ccc([N+](=O)[O-])c2nonc12)C(=O)NCC(=O)N[C@@H](CO)C(=O)N[C@@H](CCCCN)C(=O)N[C@@H](CC(=O)O)C(=O)N[C@@H](Cc1c[nH]c2ccccc12)C(=O)N[C@@H](CCCNC(=N)N)C(=O)N[C@@H](CO)C(=O)N[C@@H](Cc1ccc(O)cc1)C(=O)N[C@@H](Cc1ccc(O)cc1)C(=O)N[C@@H](CO)C(=O)O [1f_NBD] (H-[X2]KKRRQRRR[Nlys]YFTGSKDWRSYYS-OH; C-terminus assumed)
penetration into cells, NBD fluorescence: fluorescence from the attached NBD tag is visible inside HEK293T cells

C[C@@H](O)[C@H](NC(=O)[C@H](Cc1ccccc1)NC(=O)[C@H](Cc1ccc(O)cc1)NC(=O)CN(CCCCN)C(=O)[C@H](CCCNC(=N)N)NC(=O)[C@H](CCCNC(=N)N)NC(=O)[C@H](CCCNC(=N)N)NC(=O)[C@H](CCCNC(=N)N)NC(=O)[C@H](CCCNC(=N)N)NC(=O)[C@H](CCCNC(=N)N)Nc1ccc([N+](=O)[O-])c2nonc12)C(=O)NCC(=O)N[C@@H](CO)C(=O)N[C@@H](CCCCN)C(=O)N[C@@H](CC(=O)O)C(=O)N[C@@H](Cc1c[nH]c2ccccc12)C(=O)N[C@@H](CCCNC(=N)N)C(=O)N[C@@H](CO)C(=O)N[C@@H](Cc1ccc(O)cc1)C(=O)N[C@@H](Cc1ccc(O)cc1)C(=O)N[C@@H](CO)C(=O)O [1g_NBD] (H-[X2]RRRRR[Nlys]YFTGSKDWRSYYS-OH; C-terminus assumed)
penetration into cells, NBD fluorescence: fluorescence from the attached NBD tag is visible inside HEK293T cells
